Key:
Assay in all cases: MIC by microtiter dilution in Mueller Hinton Broth
Details in all cases: 5×10^5 CFU/ml, 37° C., 18 hours, A600
E. Coli = format: cell-based, Escherichia coli
Description: (§1) Minimal inhibitory concentrations (MIC) were determined by a standard microtiter dilution method in Mueller Hinton Broth (MHB) medium. Bacteria cells were grown overnight at 37° C. in MHB medium and diluted to a bacteria concentration of 10^6 colony forming units (CFU)/ml. The bacteria concentration was adjusted to 5×10^5 CFU/ml by adding 100 μl of a suspension of the bacteria cultured under the above conditions to 100 μl of a polylysine aqueous solution diluted to 10^3 to 1 μg/ml, and samples were prepared. The samples were incubated at 37° C. for 18 hours, and the MICs (lowest polylysine concentration that inhibited cell growth) after 18 hours were determined.

P. aeruginosa = format: cell-based, Pseudomonas aeruginosa
Description: as §1

S. aureus = format: cell-based, Staphylococcus aureus
Description: as §1

S. marcescence = format: cell-based, Serratia marcescens
Description: as §1

C. albicans = format: cell-based, Candida albicans
Description: as §1

F. solani = format: cell-based, Fusarium solani
Description: as §1

Substance | MIC (E. Coli) [µg/mL] | MIC (P. aeruginosa) [µg/mL] | MIC (S. aureus) [µg/mL] | MIC (S. marcescence) [µg/mL] | MIC (C. albicans) [µg/mL] | MIC (F. solani) [µg/mL]
epsilon-polylysine [EPL] | 7.8 | 7.8 | 7.8 | 15.6 | 54 | 109
methacrylated epsilon-polylysine [MA-EPL] | 7.8 | 7.8 | – | 15.6 | 27 | 54
